Key:
[1] = target: G protein-coupled receptor kinase 3 (Homo sapiens) (UniProt P35626)
[2] = target: RAC-beta serine/threonine-protein kinase (Homo sapiens) (UniProt P31751)
[3] = target: Receptor tyrosine-protein kinase erbB-4 (Homo sapiens) (UniProt Q15303)
[4] = target: Tyrosine-protein kinase Fyn (Homo sapiens) (UniProt P06241)
[5] = target: Bone morphogenetic protein receptor type-1B (Homo sapiens) (UniProt O00238)
[6] = target: Serine/threonine-protein kinase tousled-like 2 (Homo sapiens) (UniProt Q86UE8)
[7] = target: Maternal embryonic leucine zipper kinase (Homo sapiens) (UniProt Q14680)
[8] = target: Macrophage-stimulating protein receptor (Homo sapiens) (UniProt Q04912)
[9] = target: High affinity nerve growth factor receptor (Homo sapiens) (UniProt P04629)
[10] = test system: Receptor-type tyrosine-protein kinase FLT3 (Homo sapiens), P36888 [R834Q]
[11] = target: Mitogen-activated protein kinase 13 (Homo sapiens) (UniProt O15264)
[12] = test system: Epidermal growth factor receptor (Homo sapiens), P00533 [L861Q]
[13] = target: Serine/threonine-protein kinase Nek9 (Homo sapiens) (UniProt Q8TD19)
[14] = target: Serine/threonine-protein kinase RIO2 (Homo sapiens) (UniProt Q9BVS4)
[15] = target: Serine/threonine-protein kinase ULK2 (Homo sapiens) (UniProt Q8IYT8)
[16] = target: Fibroblast growth factor receptor 2 (Homo sapiens) (UniProt P21802)
[17] = target: Serine/threonine-protein kinase Nek3 (Homo sapiens) (UniProt P51956)
[18] = target: Vascular endothelial growth factor receptor 1 (Homo sapiens) (UniProt P17948)
[19] = test system: Phosphatidylinositol 4,5-bisphosphate 3-kinase catalytic subunit alpha isoform (Homo sapiens), P42336 [E542K]
[20] = target: Mitogen-activated protein kinase kinase kinase 3 (Homo sapiens) (UniProt Q99759)
[21] = target: Calcium/calmodulin-dependent protein kinase type II subunit beta (Homo sapiens) (UniProt Q13554)
[22] = target: Cyclin-dependent kinase 4 (Homo sapiens) (UniProt P11802)
[23] = target: NUAK family SNF1-like kinase 1 (Homo sapiens) (UniProt O60285)
[24] = target: Rho-associated protein kinase 2 (Homo sapiens) (UniProt O75116)
[25] = target: Dual specificity protein kinase TTK (Homo sapiens) (UniProt P33981)
[26] = target: Serine/threonine-protein kinase TNNI3K (Homo sapiens) (UniProt Q59H18)
[27] = target: Dual specificity testis-specific protein kinase 1 (Homo sapiens) (UniProt Q15569)
[28] = target: Dual specificity mitogen-activated protein kinase kinase 2 (Homo sapiens) (UniProt P36507)
[29] = target: Phosphatidylinositol 4,5-bisphosphate 3-kinase catalytic subunit gamma isoform (Homo sapiens) (UniProt P48736)
[30] = target: Ribosomal protein S6 kinase alpha-4 (Homo sapiens) (UniProt O75676)
[31] = target: Serine/threonine-protein kinase PknB (Mycobacterium tuberculosis) (UniProt P9WI81)
[32] = target: Leucine-rich repeat serine/threonine-protein kinase 2 (Homo sapiens) (UniProt Q5S007)
[33] = target: Activated CDC42 kinase 1 (Homo sapiens) (UniProt Q07912)
[34] = target: Ephrin type-A receptor 6 (Homo sapiens) (UniProt Q9UF33)
[35] = target: BDNF/NT-3 growth factors receptor (Homo sapiens) (UniProt Q16620)
[36] = target: Mitogen-activated protein kinase 3 (Homo sapiens) (UniProt P27361)
[37] = target: Ribosomal protein S6 kinase alpha-2 (Homo sapiens) (UniProt Q15349)
[38] = target: Transient receptor potential cation channel subfamily M member 6 (Homo sapiens) (UniProt Q9BX84)
[39] = target: Discoidin domain-containing receptor 2 (Homo sapiens) (UniProt Q16832)
[40] = test system: Phosphatidylinositol 4,5-bisphosphate 3-kinase catalytic subunit alpha isoform (Homo sapiens), P42336 [Q546K]
[41] = target: Ankyrin repeat and protein kinase domain-containing protein 1 (Homo sapiens) (UniProt Q8NFD2)
[42] = target: Serine/threonine-protein kinase MAK (Homo sapiens) (UniProt P20794)
[43] = target: Calcium/calmodulin-dependent protein kinase type 1 (Homo sapiens) (UniProt Q14012)
[44] = target: Tyrosine-protein kinase Fgr (Homo sapiens) (UniProt P09769)
[45] = target: Citron Rho-interacting kinase (Homo sapiens) (UniProt O14578)
[46] = Compound concentration 1000.0 nM
[47] = Compound concentration 100.0 nM

Chain of BDNF/NT-3 growth factors receptor (Homo sapiens) (Q16620 32-822 limits assumed): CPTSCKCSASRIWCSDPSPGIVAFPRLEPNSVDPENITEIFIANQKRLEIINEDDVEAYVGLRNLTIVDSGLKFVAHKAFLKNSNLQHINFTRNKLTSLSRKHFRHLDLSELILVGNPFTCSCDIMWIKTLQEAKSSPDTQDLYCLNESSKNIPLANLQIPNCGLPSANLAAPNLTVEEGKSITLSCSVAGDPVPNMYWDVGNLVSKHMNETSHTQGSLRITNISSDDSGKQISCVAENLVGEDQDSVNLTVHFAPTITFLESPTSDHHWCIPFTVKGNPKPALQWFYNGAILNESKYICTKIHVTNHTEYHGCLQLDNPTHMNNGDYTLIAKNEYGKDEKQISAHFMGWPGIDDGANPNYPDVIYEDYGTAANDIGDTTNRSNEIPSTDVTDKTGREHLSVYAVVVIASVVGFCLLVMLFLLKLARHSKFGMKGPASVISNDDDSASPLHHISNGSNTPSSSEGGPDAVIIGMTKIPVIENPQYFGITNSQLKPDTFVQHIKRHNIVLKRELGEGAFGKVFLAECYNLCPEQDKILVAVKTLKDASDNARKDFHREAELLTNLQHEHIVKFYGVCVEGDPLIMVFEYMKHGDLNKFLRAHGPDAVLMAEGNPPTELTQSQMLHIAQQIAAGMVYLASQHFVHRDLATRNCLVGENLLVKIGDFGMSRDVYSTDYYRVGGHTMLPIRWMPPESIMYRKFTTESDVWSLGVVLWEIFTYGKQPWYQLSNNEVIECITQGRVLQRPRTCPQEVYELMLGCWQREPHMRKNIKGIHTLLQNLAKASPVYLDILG
Chain of Serine/threonine-protein kinase RIO2 (Homo sapiens) (Q9BVS4 whole entry, looked up): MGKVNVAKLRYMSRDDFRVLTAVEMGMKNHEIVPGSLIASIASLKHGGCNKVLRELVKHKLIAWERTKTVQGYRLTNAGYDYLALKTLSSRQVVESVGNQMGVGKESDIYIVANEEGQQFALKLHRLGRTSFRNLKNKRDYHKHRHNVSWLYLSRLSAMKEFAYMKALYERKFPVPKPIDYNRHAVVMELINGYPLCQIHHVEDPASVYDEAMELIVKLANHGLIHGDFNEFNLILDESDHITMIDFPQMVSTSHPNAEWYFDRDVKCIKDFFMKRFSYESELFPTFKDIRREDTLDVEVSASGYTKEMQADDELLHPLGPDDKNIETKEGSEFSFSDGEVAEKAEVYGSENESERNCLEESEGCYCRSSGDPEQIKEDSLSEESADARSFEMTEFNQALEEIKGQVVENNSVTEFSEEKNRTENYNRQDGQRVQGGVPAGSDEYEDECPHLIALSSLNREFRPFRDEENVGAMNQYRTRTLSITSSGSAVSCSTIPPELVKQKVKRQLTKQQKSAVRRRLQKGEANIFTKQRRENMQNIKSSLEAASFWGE
Chain of Fibroblast growth factor receptor 2 (Homo sapiens) (P21802 22-821 limits assumed): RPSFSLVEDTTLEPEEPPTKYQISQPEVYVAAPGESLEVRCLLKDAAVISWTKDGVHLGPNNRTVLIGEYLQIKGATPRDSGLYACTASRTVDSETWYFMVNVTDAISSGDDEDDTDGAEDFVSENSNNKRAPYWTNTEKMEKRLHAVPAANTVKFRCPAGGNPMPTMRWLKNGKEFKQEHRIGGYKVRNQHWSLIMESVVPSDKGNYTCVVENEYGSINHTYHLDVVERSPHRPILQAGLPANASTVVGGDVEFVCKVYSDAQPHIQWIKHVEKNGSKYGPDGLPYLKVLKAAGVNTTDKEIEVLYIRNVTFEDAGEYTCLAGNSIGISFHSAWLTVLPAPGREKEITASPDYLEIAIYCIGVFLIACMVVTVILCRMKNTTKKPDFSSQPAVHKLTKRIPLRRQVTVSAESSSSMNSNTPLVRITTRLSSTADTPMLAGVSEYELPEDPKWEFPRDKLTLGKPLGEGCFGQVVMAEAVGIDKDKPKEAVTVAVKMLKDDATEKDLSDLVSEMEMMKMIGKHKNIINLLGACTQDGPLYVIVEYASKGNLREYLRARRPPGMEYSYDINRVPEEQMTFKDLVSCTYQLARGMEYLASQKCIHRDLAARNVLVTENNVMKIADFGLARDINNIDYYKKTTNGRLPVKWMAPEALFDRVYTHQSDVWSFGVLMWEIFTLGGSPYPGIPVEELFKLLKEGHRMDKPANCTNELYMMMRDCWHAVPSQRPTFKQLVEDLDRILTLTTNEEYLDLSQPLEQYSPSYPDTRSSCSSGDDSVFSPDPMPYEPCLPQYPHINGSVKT
Chain of NUAK family SNF1-like kinase 1 (Homo sapiens) (O60285 whole entry): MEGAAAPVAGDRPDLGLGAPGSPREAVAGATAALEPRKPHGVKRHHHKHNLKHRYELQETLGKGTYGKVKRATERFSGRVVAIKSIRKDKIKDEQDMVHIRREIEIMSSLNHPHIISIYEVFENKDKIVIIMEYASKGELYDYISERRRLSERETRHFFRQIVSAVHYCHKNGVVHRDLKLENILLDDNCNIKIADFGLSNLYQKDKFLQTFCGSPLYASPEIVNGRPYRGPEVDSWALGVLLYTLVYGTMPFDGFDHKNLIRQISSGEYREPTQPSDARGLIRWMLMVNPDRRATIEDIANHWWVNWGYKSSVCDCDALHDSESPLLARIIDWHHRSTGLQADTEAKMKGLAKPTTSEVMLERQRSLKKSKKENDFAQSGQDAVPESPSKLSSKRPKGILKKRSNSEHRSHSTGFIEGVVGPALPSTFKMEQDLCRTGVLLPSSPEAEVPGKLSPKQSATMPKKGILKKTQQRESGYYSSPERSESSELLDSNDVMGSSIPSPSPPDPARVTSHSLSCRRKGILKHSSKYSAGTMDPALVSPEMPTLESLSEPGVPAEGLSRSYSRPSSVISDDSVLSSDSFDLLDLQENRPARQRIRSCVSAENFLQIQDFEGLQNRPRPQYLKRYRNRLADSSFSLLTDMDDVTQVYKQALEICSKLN
Chain of High affinity nerve growth factor receptor (Homo sapiens) (P04629 33-796 limits assumed): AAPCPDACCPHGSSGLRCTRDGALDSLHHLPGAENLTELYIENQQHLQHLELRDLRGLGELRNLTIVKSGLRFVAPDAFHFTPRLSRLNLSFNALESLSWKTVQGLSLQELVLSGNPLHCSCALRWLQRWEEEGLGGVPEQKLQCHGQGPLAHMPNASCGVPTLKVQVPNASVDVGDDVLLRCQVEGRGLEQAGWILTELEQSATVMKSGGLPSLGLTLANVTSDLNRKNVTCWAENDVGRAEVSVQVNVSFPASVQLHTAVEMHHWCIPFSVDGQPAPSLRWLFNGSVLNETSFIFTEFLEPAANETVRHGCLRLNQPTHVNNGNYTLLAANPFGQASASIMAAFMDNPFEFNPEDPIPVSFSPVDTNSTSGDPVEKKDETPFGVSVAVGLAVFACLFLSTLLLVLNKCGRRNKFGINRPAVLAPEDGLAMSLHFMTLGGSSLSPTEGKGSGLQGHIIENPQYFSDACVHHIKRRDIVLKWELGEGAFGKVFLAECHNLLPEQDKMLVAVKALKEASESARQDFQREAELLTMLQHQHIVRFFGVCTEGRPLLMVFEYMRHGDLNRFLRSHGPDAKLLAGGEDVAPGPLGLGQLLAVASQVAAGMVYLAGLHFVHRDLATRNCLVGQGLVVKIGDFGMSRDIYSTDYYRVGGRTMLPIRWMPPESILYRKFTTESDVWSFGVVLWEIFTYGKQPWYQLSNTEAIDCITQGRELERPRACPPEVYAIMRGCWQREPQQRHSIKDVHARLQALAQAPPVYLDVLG
Chain of Discoidin domain-containing receptor 2 (Homo sapiens) (Q16832 whole entry, the tested form may be a part, canonical isoform): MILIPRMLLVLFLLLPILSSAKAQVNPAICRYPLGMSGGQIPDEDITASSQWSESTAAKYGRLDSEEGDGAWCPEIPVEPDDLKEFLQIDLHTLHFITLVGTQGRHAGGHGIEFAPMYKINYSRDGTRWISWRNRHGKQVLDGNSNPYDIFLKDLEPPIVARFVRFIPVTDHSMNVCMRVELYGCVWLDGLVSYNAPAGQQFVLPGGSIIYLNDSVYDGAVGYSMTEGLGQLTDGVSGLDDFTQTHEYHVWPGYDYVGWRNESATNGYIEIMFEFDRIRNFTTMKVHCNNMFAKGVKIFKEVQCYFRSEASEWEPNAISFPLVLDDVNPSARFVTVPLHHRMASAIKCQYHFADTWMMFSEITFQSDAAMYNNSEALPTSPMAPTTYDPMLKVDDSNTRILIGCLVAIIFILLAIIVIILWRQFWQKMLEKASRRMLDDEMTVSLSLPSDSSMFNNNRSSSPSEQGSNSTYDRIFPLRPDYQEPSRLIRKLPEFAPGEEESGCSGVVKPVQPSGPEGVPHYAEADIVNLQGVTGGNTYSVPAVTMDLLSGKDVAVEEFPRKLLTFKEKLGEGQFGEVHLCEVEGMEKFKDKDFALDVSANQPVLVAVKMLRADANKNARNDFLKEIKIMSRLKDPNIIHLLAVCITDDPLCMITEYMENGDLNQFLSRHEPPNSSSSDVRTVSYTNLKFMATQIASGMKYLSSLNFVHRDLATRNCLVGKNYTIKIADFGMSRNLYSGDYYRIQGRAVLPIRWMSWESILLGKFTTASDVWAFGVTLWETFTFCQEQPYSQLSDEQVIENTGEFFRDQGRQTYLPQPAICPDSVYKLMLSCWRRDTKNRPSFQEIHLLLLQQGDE
Chain of Maternal embryonic leucine zipper kinase (Homo sapiens) (Q14680 whole entry, looked up): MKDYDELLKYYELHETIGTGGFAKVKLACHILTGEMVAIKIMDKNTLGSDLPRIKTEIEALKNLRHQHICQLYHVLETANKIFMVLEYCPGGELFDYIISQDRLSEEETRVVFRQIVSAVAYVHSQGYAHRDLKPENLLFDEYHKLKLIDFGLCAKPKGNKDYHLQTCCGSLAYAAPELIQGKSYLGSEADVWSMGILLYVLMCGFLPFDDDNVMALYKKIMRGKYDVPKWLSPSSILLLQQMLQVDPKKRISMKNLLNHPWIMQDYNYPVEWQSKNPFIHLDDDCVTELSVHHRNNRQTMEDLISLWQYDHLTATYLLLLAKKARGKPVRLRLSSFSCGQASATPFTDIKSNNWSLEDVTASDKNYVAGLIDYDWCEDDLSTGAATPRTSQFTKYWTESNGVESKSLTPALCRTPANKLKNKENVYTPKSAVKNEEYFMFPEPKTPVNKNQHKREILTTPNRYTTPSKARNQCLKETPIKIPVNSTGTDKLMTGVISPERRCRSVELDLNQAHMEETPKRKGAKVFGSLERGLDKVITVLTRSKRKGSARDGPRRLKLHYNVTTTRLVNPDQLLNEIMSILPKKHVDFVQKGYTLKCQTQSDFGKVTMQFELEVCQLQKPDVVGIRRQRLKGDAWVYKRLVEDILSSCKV

C[C@H](NC(=O)Nc1cc2[nH]ncc2c(CO)n1)c1ccccn1 [ERKi-NC]
residual activity [1, 46]: 88.7%
residual activity [2, 46]: 100%
residual activity [3, 46]: 100%
residual activity [4, 46]: 70.9%
residual activity [5, 46]: 100%
residual activity [6, 46]: 88.4%
residual activity [7, 46]: 100%
residual activity [8, 46]: 85.5%
residual activity [9, 46]: 81%
residual activity [10, 46]: 94.5%
residual activity [11, 46]: 85%
residual activity [12, 46]: 100%
residual activity [13, 46]: 100%
residual activity [14, 46]: 100%
residual activity [15, 46]: 100%
residual activity [16, 46]: 62%
residual activity [17, 46]: 46.8%
residual activity [18, 46]: 100%
residual activity [19, 46]: 76.7%
residual activity [20, 46]: 100%
residual activity [21, 46]: 100%
residual activity [22, 46]: 74.2%
residual activity [23, 46]: 100%
residual activity [24, 46]: 88.4%
residual activity [25, 46]: 80.3%
residual activity [26, 46]: 100%
residual activity [27, 46]: 100%
residual activity [28, 46]: 90.7%
residual activity [29, 46]: 100%
residual activity [30, 46]: 100%
residual activity [31, 46]: 100%
residual activity [32, 46]: 71.3%
residual activity [33, 46]: 100%
residual activity [34, 46]: 89%
residual activity [35, 46]: 68.5%
residual activity [36, 46]: 17%
residual activity [37, 46]: 100%
residual activity [38, 46]: 92.7%
residual activity [39, 46]: 94.3%
residual activity [40, 46]: 100%
residual activity [41, 46]: 100%
residual activity [42, 46]: 84.1%
residual activity [43, 46]: 100%
residual activity [44, 46]: 100%
residual activity [45, 46]: 99.9%

C[C@@H](NC(=O)Nc1cc2[nH]ncc2c(CO)n1)c1ccccc1 [ERKi]
residual activity [1, 47]: 60.8%
residual activity [2, 47]: 100%
residual activity [3, 47]: 97.6%
residual activity [4, 47]: 95.2%
residual activity [5, 47]: 69.4%
residual activity [6, 47]: 86.9%
residual activity [7, 47]: 58.7%
residual activity [8, 47]: 94.4%
residual activity [9, 47]: 90%
residual activity [10, 47]: 56.8%
residual activity [11, 47]: 100%
residual activity [12, 47]: 100%
residual activity [13, 47]: 77.5%
residual activity [14, 47]: 84.6%
residual activity [15, 47]: 79.7%
residual activity [16, 47]: 100%
residual activity [17, 47]: 79.6%
residual activity [18, 47]: 100%
residual activity [19, 47]: 78.6%
residual activity [20, 47]: 82.1%
residual activity [21, 47]: 75.2%
residual activity [22, 47]: 86.6%
residual activity [23, 47]: 94.9%
residual activity [24, 47]: 44.7%
residual activity [25, 47]: 85.2%
residual activity [26, 47]: 94.6%
residual activity [27, 47]: 100%
residual activity [28, 47]: 84.8%
residual activity [29, 47]: 96.4%
residual activity [30, 47]: 72.5%
residual activity [31, 47]: 85%
residual activity [32, 47]: 94.6%
residual activity [33, 47]: 94.8%
residual activity [34, 47]: 100%
residual activity [35, 47]: 63.6%
residual activity [36, 47]: 0.2%
residual activity [37, 47]: 90.7%
residual activity [38, 47]: 96.4%
residual activity [39, 47]: 98.5%
residual activity [40, 47]: 100%
residual activity [41, 47]: 78.2%
residual activity [42, 47]: 97.9%
residual activity [43, 47]: 67.1%
residual activity [44, 47]: 100%
residual activity [45, 47]: 100%

— ChEMBL document CHEMBL4507286 (2021)
